# Target: T1, FAAH (Rattus norvegicus, UniProt P97612)
# T1 construct: Frozen brains (without cerebellum) from Wistar rats were used; from tissue; host or cells: Wistar rat brain (without cerebellum), washed membrane pellets
# T1 sequence (P97612 1-579): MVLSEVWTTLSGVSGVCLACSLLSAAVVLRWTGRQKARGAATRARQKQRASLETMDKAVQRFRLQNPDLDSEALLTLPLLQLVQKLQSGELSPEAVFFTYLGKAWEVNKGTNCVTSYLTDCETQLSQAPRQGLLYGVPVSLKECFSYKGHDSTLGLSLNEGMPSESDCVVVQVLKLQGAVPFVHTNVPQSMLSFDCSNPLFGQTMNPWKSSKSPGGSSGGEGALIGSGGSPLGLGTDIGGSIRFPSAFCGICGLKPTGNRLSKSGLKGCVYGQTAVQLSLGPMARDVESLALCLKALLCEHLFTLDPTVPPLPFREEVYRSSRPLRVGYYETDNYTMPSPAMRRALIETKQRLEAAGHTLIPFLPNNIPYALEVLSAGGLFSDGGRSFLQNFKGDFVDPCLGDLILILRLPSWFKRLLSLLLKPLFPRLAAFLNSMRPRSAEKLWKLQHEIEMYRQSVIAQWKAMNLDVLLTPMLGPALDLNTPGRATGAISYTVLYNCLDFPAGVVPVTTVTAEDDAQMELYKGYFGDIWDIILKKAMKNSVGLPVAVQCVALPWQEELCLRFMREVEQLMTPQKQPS
# Experiment: In vitro FAAH activity in rat brain membranes, 3H-AEA substrate, % of control
# Format: biochemical, Wistar rats
# Conditions: 100 nM test compound, low value = strong inhibitor
# Protocol: 3. Biological Efficacy of Compounds of the Invention The in vitro test was performed according to the protocol described below. The controls for both in vitro and in vivo were the reaction mix minus the test compounds. Therefore, a low value in Table 1 below for the test compounds indicates a strong inhibitor.
# The in vitro pharmaceutical FAAH activity was determined according to the following method:
# Frozen brains (without cerebellum) from Wistar rats were used, and each brain was homogenized in 15 ml 1 mM MgCL2, […] HEPES pH 7.0 with Potter Elvejhem (8 strokes at 500 rpm). Homogenates were centrifuged for 20 min at 36000 g at 4° C. (Beckman, 70Ti rotor). Pellets were resuspended in 15 ml of the same buffer and centrifuged under the same conditions. Pellets were resuspended in 15 ml of the same buffer and incubated for 15 min at 37° C. after which they were centrifuged for 20 min at 36000 g at 4° C. Each pellet was then resuspended in 15 ml 3 mM MgCl2, 1 mM EDTA, 50 mM Tris pH 7.4 and protein determined with BioRad Protein Assay (BioRad) using a standard curve of BSA (50-250 μg/ml). The membrane suspensions were aliquoted and stored at −80° C.
# The FAAH activity was determined using AEA (labelled with 3H in the ethanolamine part of the molecule) as substrate and measuring the 3H-ethanolamine formed. Reaction mix (total volume of 200 up contained: 2 μM AEA (2 μM AEA+5 nM 3H-AEA), 0.1% fatty acid free BSA, 5 μg protein, in 1 mM EDTA, 10 mM Tris pH 7.6 and 10 μM or 0.1 μM compounds. Stock solutions of the compounds to test (10 mM) were prepared in 100% DMSO and the DMSO concentration in the assay was 0.1%. After a 15 min preincubation period at 37° C., reaction was started by the addition of the substrate solution ([…]). Reaction was carried out for 10 min before termination by the addition of 400 μl activated charcoal suspension (8 g charcoal in 32 ml 0.5 M HCl in continuous agitation). After a 30 min incubation period at room temperature with agitation, charcoal was sedimented by centrifugation in microfuge (10 min at 13000 rpm). 200 μl of the supernatant were added to 800 μl Optiphase Supermix scintillation cocktail previously distributed in 24-well plates. Counts per minute (cpm) were determined in Microbeta TriLux scintillation counter (10 min counting or until s=2).
# In each assay blanks (no protein, usually below 200 cpm) and controls (no compound) were present. The results are reported in Table 1 as % of control after blank subtraction.
row,"In Vitro FAAH activity, 100 nM",SMILES
1,0 % of control,"Cl.O=C(N1CCN(Cc2ccccc2)CC1)n1nnc2ccccc21 [Compound 93, (1H-benzo[d][1,2,3]triazol-1-yl)(4-benzylpiperazin-1-yl)methanone hydrochloride]"
2,0 % of control,"O=C(N1CCC(c2ccccc2)CC1)n1nnc2ccccc21 [Compound 94, (1H-benzo[d][1,2,3]triazol-1-yl)(4-phenylpiperidin-1-yl)methanone]"
3,0.7 % of control,"CN(C(=O)n1nnc2cc(-c3cccc(C#N)c3)ccc21)C1CCCCC1 [Compound 95, 5-(3-cyanophenyl)-N-cyclohexyl-N-methyl-1H-benzo[d][1,2,3]triazole-1-carboxamide]"
4,14.3 % of control,"CN(C(=O)n1nnc2cc(-c3ccc(F)cc3)ccc21)C1CCCCC1 [Compound 96, N-cyclohexyl-5-(4-fluorophenyl)-N-methyl-1H-benzo[d][1,2,3]triazole-1-carboxamide]"
5,0.6 % of control,"O=C(N1CCCC1)n1nnc2ccccc21 [Compound 98, (1H-benzo[d][1,2,3]triazol-1-yl)(pyrrolidin-1-yl)methanone]"
6,0.5 % of control,"O=C(N1CCN(c2ccccc2)CC1)n1cnc(-c2ccccc2)c1 [Compound 101, (4-phenyl-1H-imidazol-1-yl)(4-phenylpiperazin-1-yl)methanone]"
7,0.9 % of control,"O=C(N1CCN(Cc2ccccc2)CC1)n1cnc(-c2ccccc2)c1 [Compound 102, (4-benzylpiperazin-1-yl)(4-phenyl-1H-imidazol-1-yl)methanone]"
8,37.5 % of control,"CN(C(=O)n1cnc(-c2ccccc2)c1)C1CCCCC1 [Compound 103, N-cyclohexyl-N-methyl-4-phenyl-1H-imidazole-1-carboxamide]"
9,94.2 % of control,"CCN(C(=O)n1nnc2ccccc21)C1CCCCC1 [Compound 104, N-cyclohexyl-N-ethyl-1H-benzo[d][1,2,3]triazole-1-carboxamide]"
10,64.7 % of control,"Cl.O=C(N1CCC(CCN2CCCC2)CC1)n1nnc2ccccc21 [Compound 105, (1H-benzo[d][1,2,3]triazol-1-yl)(4-(2-(pyrrolidin-1-yl)ethyl)piperidin-1-yl)methanone hydrochloride]"
11,2.3 % of control,"CN(C(=O)n1nnc2ccc(-c3ccc(F)cc3)cc21)C1CCCCC1 [Compound 106, N-cyclohexyl-6-(4-fluorophenyl)-N-methyl-1H-benzo[d][1,2,3]triazole-1-carboxamide]"
12,13.5 % of control,"CN(C(=O)n1nnc2cc(-c3cccc(C(=O)O)c3)ccc21)C1CCCCC1 [Compound 107, 3-(1-(cyclohexyl(methyl)carbamoyl)-1H-benzo[d][1,2,3]triazol-5-yl)benzoic acid]"
13,7.4 % of control,"CN(C(=O)n1nnc2cc(-c3cccc(C(N)=O)c3)ccc21)C1CCCCC1 [Compound 108, 5-(3-carbamoylphenyl)-N-cyclohexyl-N-methyl-1H-benzo[d][1,2,3]triazole-1-carboxamide]"
14,0 % of control,"CN(C(=O)n1nnc2ccc(-c3cccc(C(N)=O)c3)cc21)C1CCCCC1 [Compound 109, 6-(3-carbamoylphenyl)-N-cyclohexyl-N-methyl-1H-benzo[d][1,2,3]triazole-1-carboxamide]"
15,1.5 % of control,"O=C(N1CCN(c2ccccc2)CC1)n1cnc(-c2ccccc2)n1 [Compound 111, (3-phenyl-1H-1,2,4-triazol-1-yl)(4-phenylpiperazin-1-yl)methanone]"
16,7.2 % of control,"NC(=O)c1ccc(-c2cn(C(=O)N3CCN(Cc4ccccc4)CC3)cn2)cc1 [Compound 112, 4-(1-(4-benzylpiperazine-1-carbonyl)-1H-imidazol-4-yl)benzamide]"
17,0 % of control,"CN(CCc1ccccc1)C(=O)n1nnc2ccccc21 [Compound 115, N-methyl-N-phenethyl-1H-benzo[d][1,2,3]triazole-1-carboxamide]"
18,0.1 % of control,"O=C(N1CCC(Oc2ccc(Cl)cc2)CC1)n1nnc2ccccc21 [Compound 117, (1H-benzo[d][1,2,3]triazol-1-yl)(4-(4-chlorophenoxy)piperidin-1-yl)methanone]"
19,0 % of control,"CN(CCCc1ccccc1)C(=O)n1nnc2ccccc21 [Compound 118, N-methyl-N-(3-phenylpropyl)-1H-benzo[d][1,2,3]triazole-1-carboxamide]"
20,0 % of control,"COc1cccc(CN(C)C(=O)n2nnc3ccccc32)c1 [Compound 119, N-(3-methoxybenzyl)-N-methyl-1H-benzo[d][1,2,3]triazole-1-carboxamide]"
21,0.1 % of control,"O=C(N1CCC(Oc2ccccc2)CC1)n1nnc2ccccc21 [Compound 120, (1H-benzo[d][1,2,3]triazol-1-yl)(4-phenoxypiperidin-1-yl)methanone]"
22,93 % of control,"CN1CCN(C2CCN(C(=O)n3nnc4ccccc43)CC2)CC1.Cl [Compound 122, (1H-benzo[d][1,2,3]triazol-1-yl)(4-(4-methylpiperazin-1-yl)piperidin-1-yl)methanone hydrochloride]"
23,0 % of control,"CN(Cc1cccc(Cl)c1)C(=O)n1nnc2ccccc21 [Compound 123, N-(3-chlorobenzyl)-N-methyl-1H-benzo[d][1,2,3]triazole-1-carboxamide]"
24,1.5 % of control,"Cl.O=C(N1CCN(Cc2ccccc2)CC1)n1cnc(-c2ccccc2)n1 [Compound 124, (4-benzylpiperazin-1-yl)(3-phenyl-1H-1,2,4-triazol-1-yl)methanone hydrochloride]"
25,53.5 % of control,"Cl.O=C(N1CCN(Cc2ccccc2)CC1)n1cnc(-c2ccc(OCc3ccccc3)cc2)n1 [Compound 125, (3-(4-(benzyloxy)phenyl)-1H-1,2,4-triazol-1-yl)(4-benzylpiperazin-1-yl)methanone hydrochloride]"
26,0 % of control,"O=C(N1CCC(OCc2ccccc2)CC1)n1nnc2ccccc21 [Compound 128, (1H-benzo[d][1,2,3]triazol-1-yl)(4-(benzyloxy)piperidin-1-yl)methanone]"
27,0 % of control,"CN(Cc1ccc(F)cc1)C(=O)n1nnc2ccccc21 [Compound 130, N-(4-fluorobenzyl)-N-methyl-1H-benzo[d][1,2,3]triazole-1-carboxamide]"
28,0 % of control,"CN(Cc1ccc2ccccc2c1)C(=O)n1nnc2ccccc21 [Compound 131, N-methyl-N-(naphthalen-2-ylmethyl)-1H-benzo[d][1,2,3]triazole-1-carboxamide]"
29,85.1 % of control,"Cc1ccc(OC2CCN(C(=O)n3cnc(-c4ccc(N5CCN(C)CC5)cc4)n3)CC2)cc1.Cl [Compound 132, (3-(4-(4-methylpiperazin-1-yl)phenyl)-1H-1,2,4-triazol-1-yl)(4-(p-tolyloxy)piperidin-1-yl)methanone hydrochloride]"
30,90.7 % of control,"O=C(N1CCOCC1)n1cnc(-c2ccc(N3CCN(Cc4ccccc4)CC3)cc2)n1 [Compound 133, (3-(4-(4-benzylpiperazin-1-yl)phenyl)-1H-1,2,4-triazol-1-yl)(morpholino)methanone]"

# Same assay, conditions: 10 uM test compound, low value = strong inhibitor
row,"In Vitro FAAH activity, 10 uM",SMILES
1,0 % of control,"CN(C(=O)n1cnc(-c2ccccc2)c1)C1CCCCC1 [Compound 103, N-cyclohexyl-N-methyl-4-phenyl-1H-imidazole-1-carboxamide]"

# — patent US9353082B2, “Pharmaceutical compounds” (BIAL—PORTELA & CA, S.A., priority 2008, dated 2016)
